Among the test systems are Escherichia coli K88; Pseudomonas aeruginosa; Citrobacter koseri; Escherichia coli BL21; Escherichia coli JM109; Enterococcus faecium; Salmonella enterica; Staphylococcus xylosus; Micrococcus luteus A270.
Holding throughout (experiment): ≥ marks a high value that may be exact or a test limit, other limits are often not marked, values filed in µg/mL are converted to µM
Test [1] concerns Staphylococcus epidermidis ATCC 12228.
Test [2] deals with Pseudomonas aeruginosa ATCC 27853.
The test system of test [3] is Lacticaseibacillus rhamnosus 1.0936.
The test system of test [4] is Lacticaseibacillus rhamnosus 1.0911.
Test [5] relates to Pseudomonas aeruginosa PAO1.
Test [6] has as its system Staphylococcus aureus ATCC 43300.
Test [7] has as its system Escherichia coli ATCC 25922.
For test [8], the system named is Salmonella enterica subsp. enterica serovar Pullorum C79-13.
The test system of test [9] is Salmonella enterica subsp. enterica serovar Typhimurium ATCC 14028.
Test [10] relates to Streptococcus agalactiae BNCC 185941.
Test [11] relates to Staphylococcus aureus ATCC 29213.
Test [12] has as its system Lacticaseibacillus rhamnosus 8014.
The subject of test [13] is Salmonella enterica subsp. enterica serovar Choleraesuis CVCC 503.
For test [14], the system named is Lacticaseibacillus rhamnosus 1.9021.
The test system of test [15] is Escherichia coli O157:H7 CICC 21530.
Test [16] concerns Lactobacillus delbrueckii subsp. bulgaricus.
For test [17], the system named is Vibrio parahaemolyticus CCRC 10806.
Test [18] concerns Bifidobacterium adolescentis.
The test system of test [19] is Staphylococcus aureus CCRC 15211.
The test system of test [20] is Salmonella typhimurium CCRC 12947.
Test [21] deals with Staphylococcus aureus CCRC 12652.
Test [22] concerns Klebsiella pneumoniae CCRC 10694.
In test [23] the test system is Legionella pneumophila Lens.
Test [24] relates to Staphylococcus pseudintermedius.
In test [25] the test system is Escherichia coli K12 MG1655.
For test [26], the system named is Pseudomonas aeruginosa PA14.
In test [27] the test system is Escherichia coli DH5alpha.

Values after ≈ are worked out from the molar mass of the structure shown. Values joined by “and” are separate entries in the source; they are usually repeats but may differ in a detail not shown here. Identical values can stand only once.

The term MIC denotes the lowest concentration found to suppress growth. `CC(C)C[C@H](NC(=O)CNC(=O)[C@H](CC(C)C)NC(=O)[C@H](CS)NC(=O)[C@H](CC(C)C)NC(=O)CNC(=O)[C@H](CC(C)C)NC(=O)[C@H](CCCCN)NC(=O)[C@@H](N)CCCCN)C(=O)N[C@@H](CCCCN)C(=O)N[C@@H](CCCCN)C(N)=O` [KKLGLCLGLKK]: the minimal inhibitory concentration (MIC) in test [1] was 128 µM (≈ 154 µg/mL); in the test on Escherichia coli K88, 16 µM (≈ 19.2 µg/mL); in test [2], 64 µM (≈ 76.8 µg/mL); in [3] it was ≥ 128 µM; in test [4], 16 µM (≈ 19.2 µg/mL); in test [5] it was 32 µM (≈ 38.4 µg/mL). In addition, the minimum inhibitory concentration (MIC) in test [6] is 64 µM (≈ 76.8 µg/mL); in test [7] it was 32 µM and 64 µM; in [8] it was 8 µM (≈ 9.6 µg/mL); in test [9], 64 µM (≈ 76.8 µg/mL); in test [10], ≥ 128 µM; in [11] it was 128 µM (≈ 154 µg/mL). Also, the MIC is ≥ 64 µM in [12], ≥ 64 µM in [13], ≥ 32 µM in [14] and 16 µM (≈ 19.2 µg/mL) in [15].
In the case of `CC[C@H](C)[C@H](NC(=O)[C@H](CO)NC(=O)[C@H](CCCCN)NC(=O)[C@H](Cc1c[nH]c2ccccc12)NC(=O)[C@H](CCCCN)NC(=O)[C@@H](N)CC(C)C)C(=O)N[C@H](C(=O)N[C@@H](CO)C(=O)N[C@@H](Cc1c[nH]c2ccccc12)C(=O)N[C@@H](C)C(=O)N[C@@H](CCCCN)C(=O)N[C@@H](CCCCN)C(=O)N[C@H](C(=O)N[C@@H](CC(C)C)C(N)=O)C(C)C)C(C)C` [LKWKSIVSWAKKVL], the minimal inhibitory concentration (MIC) against Pseudomonas aeruginosa was 26.8 µM (≈ 45.2 µg/mL); in [16] it was ≥ 75.9 µM; in the test with Citrobacter koseri it was 0.839 µM (≈ 1.41 µg/mL); in test [17], 2.37 µM (≈ 4 µg/mL); in test [18], ≥ 75.9 µM; against Escherichia coli BL21, 1.68 µM (≈ 2.83 µg/mL). Further, the MIC in test [19] was 3.35 µM (≈ 5.65 µg/mL); against Escherichia coli JM109, 0.593 µM (≈ 0.999 µg/mL); against Enterococcus faecium, ≥ 75.9 µM; with Salmonella enterica it was 3.35 µM (≈ 5.65 µg/mL); in the test on Staphylococcus xylosus, 0.296 µM (≈ 0.5 µg/mL); in test [20], 2.37 µM (≈ 4 µg/mL). Besides, the MIC in test [21] was 3.35 µM (≈ 5.65 µg/mL); in test [22], 4.74 µM (≈ 8 µg/mL).
Molecule `CC[C@H](C)[C@H](NC(=O)[C@H](CC(C)C)NC(=O)CNC(=O)[C@H](CCCCN)NC(=O)[C@@H](NC(=O)[C@@H](NC(=O)[C@H](CCC(=O)O)NC(=O)[C@H](Cc1ccccc1)NC(=O)[C@H](Cc1ccccc1)NC(=O)[C@H](CCCCN)NC(=O)[C@H](C)NC(=O)[C@@H](NC(=O)[C@@H](NC(=O)[C@H](CC(=O)O)NC(=O)[C@H](C)NC(=O)[C@@H](N)CCSC)C(C)C)[C@@H](C)CC)[C@@H](C)CC)C(C)C)C(=O)N[C@@H](CC(=O)O)C(=O)N[C@@H](CCC(N)=O)C(=O)N[C@@H](Cc1ccccc1)C(=O)N[C@H](C(=O)N[C@@H](CCC(N)=O)C(=O)N[C@@H](CCCCN)C(=O)O)[C@@H](C)O` [MADVIAKFFEIVKGLIDQFTQK] displayed an MIC in test [23] of 2.44 µM (≈ 6.2 µg/mL).
`CC(=O)N[C@@H](CCCN=C(N)N)C(=O)N[C@@H](CCCN=C(N)N)C(=O)N[C@@H](CCCN=C(N)N)C(=O)N[C@@H](Cc1c[nH]c2ccccc12)C(=O)N[C@@H](CCCN=C(N)N)C(=O)N[C@@H](CCCCN)C(=O)N[C@@H](CCCN=C(N)N)C(=O)N[C@@H](CCCN=C(N)N)C(=O)N[C@@H](Cc1c[nH]c2ccccc12)C(=O)N[C@@H](Cc1c[nH]c2ccccc12)C(=O)N[C@@H](Cc1c[nH]c2ccccc12)C(N)=O` [RRRWRKRRWWW]: the minimum inhibitory concentration (MIC) turned out to be 17.5 µM (≈ 32.7 µg/mL) in [2], 24.8 µM (≈ 46.3 µg/mL) with Pseudomonas aeruginosa, 17.5 µM (≈ 32.7 µg/mL) in [11] and 24.8 µM (≈ 46.3 µg/mL) in test [24].
Regarding `CC(C)C[C@H](NC(=O)CNC(=O)[C@@H](NC(=O)[C@H](CC(C)C)NC(=O)[C@H](C)NC(=O)[C@@H](N)C(C)C)[C@@H](C)O)C(=O)N[C@H](C(=O)N[C@H](C(=O)N[C@@H](C)C(=O)N[C@@H](CCC(=O)O)C(=O)N[C@@H](Cc1ccc(O)cc1)C(=O)N[C@@H](Cc1ccccc1)C(=O)N[C@@H](CCCN=C(N)N)C(=O)O)C(C)C)[C@@H](C)O` [VALTGLTVAEYFR], the MIC in test [25] was 7.8 µM (≈ 11.2 µg/mL); against Micrococcus luteus A270, 1.9 µM (≈ 2.74 µg/mL); in test [2] it was 7.8 µM (≈ 11.2 µg/mL); in [26] it was 15.6 µM (≈ 22.5 µg/mL); in [11] it was 3.9 µM (≈ 5.61 µg/mL); in [27], 3.9 µM (≈ 5.61 µg/mL).

Source of the values: DBAASP.
